ChEMBL document CHEMBL5370675, “Identification of HuR-RNA Interfering Compounds by Dynamic Combinatorial Chemistry and Fluorescence Polarization” (ACS Med Chem Lett, 2023)
Activity calls are given as the source filed them. No cut-off for these calls is given here.

How the values were obtained:
[1] = target: ELAV-like protein 1 (Homo sapiens) (UniProt Q15717); assay: Inhibition of HuR (unknown origin) assessed as reduction in protein-mRNA interaction at 0.5 to 100 uM preincubated for 1 hr followed by mRNA addition and measured after 1.5 hrs by fluorescence polarization assay; conditions: dose 0.5-100 µM, time 2.5 hrs
[2] = Retention time of the compound in acetate buffer by HPLC-UV analysis; type: physicochemical

Sequence of ELAV-like protein 1 (Homo sapiens) (Q15717 whole entry): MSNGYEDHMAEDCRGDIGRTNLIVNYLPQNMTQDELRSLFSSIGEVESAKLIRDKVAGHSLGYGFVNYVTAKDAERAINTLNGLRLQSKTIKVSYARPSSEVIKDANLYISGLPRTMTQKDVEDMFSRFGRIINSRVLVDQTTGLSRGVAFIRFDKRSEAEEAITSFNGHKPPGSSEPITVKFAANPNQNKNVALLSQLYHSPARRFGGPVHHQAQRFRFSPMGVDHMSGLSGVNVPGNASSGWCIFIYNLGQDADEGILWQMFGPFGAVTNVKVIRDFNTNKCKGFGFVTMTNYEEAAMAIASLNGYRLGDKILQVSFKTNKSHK

Row | inhibition [1] | Retention_time [2] | Structure (SMILES)
1 | Active | 12.86 min | O=C(COc1ccc(Cl)cc1Cl)N/N=C/c1csc(Br)n1
2 | Active | – | Cc1cccc(Cn2nc(C(C)(C)C)cc2C(=O)N/N=C/c2csc(Br)n2)c1
3 | Active | – | Cc1cccc(Cn2nc(C(C)(C)C)cc2C(=O)N/N=C/c2ccc3cn[nH]c3c2)c1
